According to article PMC8151276, “An Integrated Approach toward NanoBRET Tracers for Analysis of GPCR Ligand Engagement” (Molecules, 2021):

Biological target: T1, HTR7 (Homo sapiens, UniProt P34969)
T1 construct: purchased Promega (in-house HiBiT-GPCR construct library, NanoBRET)
Test: NanoBRET screen HiBiT-HTR7 in HEK293
Format: binding
Procedure: Each tracer candidate was screened across the entire library of HiBiT-GPCR constructs using NanoBRET as the detection modality. As depicted in Figure 4A, the specificity of interactions was evaluated through decrease in BRET due to competitive displacement of a bound tracer by excess parental compound. Each tracer was analyzed for binding to each HiBiT-GPCR fusion in the absence and in the presence of competing parental compound. Briefly, HEK293 cells were transfected with HiBiT-GPCR constructs diluted into promoterless DNA to reduce expression and maximize translocation to the cell surface. Each tracer candidate was then screened at concentrations of 1 μM and 0.1 μM across cells expressing these fusions. Cells were treated for 1.5 h with tracer either alone or in the presence of 20 μM competing parental compound (i.e., control). BRET was measured upon addition of purified LgBiT and subsequent complementation with HiBiT genetically fused to a GPCR. The specificity of interactions was assessed through a decrease in BRET signal due to competitive displacement of the bound tracer. To further gauge the robustness of these interactions, the fold response over the control (i.e., BRETtracer/BRETcontrol) was calculated. We chose a 1.5-fold response, which translates to ≥7-fold signal over noise as the minimal threshold required to score an interaction as positive.
HiBiT-GPCR DNA constructs were diluted in 10 mM Tris pH 8 to a final concentration of 0.01 μg/μL, arrayed in 96-well plates and stored at −20 °C. For transfection, HEK293 cells were suspended in Opti-MEM (without phenol red) supplemented with 2% fetal bovine serum (Seradigm) and 100 units/mL penicillin–streptomycin (Gibco) at a final concentration of 220,000 cells/mL and dispensed into white 96-well plates at 90 μL/well. Subsequent transfections and screens were carried using an Agilent Bravo Automated Liquid Handling Platform. First, the 96-well HiBiT DNA arrays were diluted 25-fold in Opti-MEM (without serum or phenol red) to a final concentration of 0.0004 μg/μL and 20 μL of the diluted DNAs were transferred into new 96-well plates. Next, promoterless carrier DNA (1 μg/μL) was diluted 25-fold (0.04 μg/μL) and then dispensed into the diluted arrays at 20 μL/well. Following brief mixing, Viafect transfection reagent (Promega) diluted 16-fold into Opti-MEM was dispensed into the plates at 40 μL/well. After mixing by pipetting, plates were incubated for 10 min on the pipetting station deck. The DNA-transfection reagent complexes were then added to plates containing cells. To facilitate the screen, 10 μL of DNA-transfection reagent complexes were added in duplicates to the top 4 and bottom 4 rows, resulting in two identical 48-well arrays per plate. Plates with transfected cells were incubated for 18–20 h at 37 °C/5% CO2. A screen of each tracer across the entire library using two different concentrations requires duplicate plates of transfected cells. Depending on the number of tracers being screened, transfections can be scaled up using the same ratios. The next day, for each tracer, four 20× screening solutions in tracer dilution buffer (Promega) were prepared: two duplicates at final concentration of 20 μM and two duplicates at a final concentration of 2 μM. […] The four resulting solutions were diluted 4-fold in Opti-MEM without serum or phenol red to generate 5× solutions (5 µM and 0.5 µM tracer +/− 100 μM competing compound). To screen the library, a BioTek MultiFlo FX liquid dispenser was used to dispense 22.5 µL of tracer solution to the top 4 rows and 22.5 µL tracer + competing compound solution to the 4 bottom rows. Plates were briefly mixed on an orbital shaker and incubated for 1.5 h at room temperature. […] Plates were briefly mixed on an orbital shaker and incubated for 15 min to allow complementation.

T1 sequence (P34969 whole entry): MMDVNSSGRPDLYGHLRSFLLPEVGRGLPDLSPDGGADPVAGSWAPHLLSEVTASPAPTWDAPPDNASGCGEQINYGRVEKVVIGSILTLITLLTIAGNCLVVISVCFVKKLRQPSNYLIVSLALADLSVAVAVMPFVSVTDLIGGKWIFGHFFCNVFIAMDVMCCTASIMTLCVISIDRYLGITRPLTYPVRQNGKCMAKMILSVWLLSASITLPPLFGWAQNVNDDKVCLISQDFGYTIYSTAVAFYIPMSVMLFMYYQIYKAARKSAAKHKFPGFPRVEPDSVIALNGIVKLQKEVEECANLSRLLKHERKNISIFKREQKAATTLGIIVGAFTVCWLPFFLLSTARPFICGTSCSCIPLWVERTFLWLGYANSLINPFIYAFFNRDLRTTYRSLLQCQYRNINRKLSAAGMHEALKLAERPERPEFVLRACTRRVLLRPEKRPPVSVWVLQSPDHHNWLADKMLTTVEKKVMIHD

Structure (SMILES)	NanoBRET Fold Response (HTR7, tracer 0.1μM)	NanoBRET Fold Response (HTR7, tracer 1μM)	further results
CCOC(=O)c1cc(C#N)c(N2CCC(C(=O)NS(=O)(=O)Cc3ccccc3/C=C/C(=O)NCCNC(=O)CCc3ccc4n3[B-](F)(F)[N+]3=C(c5ccc[nH]5)C=CC3=C4)CC2)nc1C [AZD1283-1-NB590]			NanoBRET Fold Response (HTR7, 0.1μM): 1.08; NanoBRET Fold Response (HTR7, 1μM): 1.09
N#CN/C(=N\CCNC(=O)c1ccc(N)cc1)NCCCOc1cccc(CN2CCCCC2)c1 [Aminopotentidine (unmodified)]			NanoBRET Fold Response (HTR7, other tracers/Aminopotentidine (unmodified), 0.1μM): 1.10; NanoBRET Fold Response (HTR7, other tracers/Aminopotentidine (unmodified), 1μM): 1.18
N#CN=C(NCCCOc1cccc(CN2CCCCC2)c1)NCCNC(=O)CCOCCOCCOCCOCCNC(=O)CCc1ccc2n1[B-](F)(F)[N+]1=C(c3ccc[nH]3)C=CC1=C2 [Aminopotentidine-2-NB590]	1.00	1.00	
CN(C)CCC=C1c2ccccc2CCc2ccc(C(=O)NCCNC(=O)CCOCCOCCOCCOCCNC(=O)CCc3ccc4n3[B-](F)(F)[N+]3=C(c5ccc[nH]5)C=CC3=C4)cc21 [Amitriptyline-a-2-NB590]			NanoBRET Fold Response (tracer at 0.1μM): 1.00; NanoBRET Fold Response (tracer at 1μM): 1.15
CN(C)CCC=C1c2ccccc2CCc2ccc(C(=O)NCCNC(=O)CCOCCOCCOCCOCCNC(=O)CCc3ccc4n3[B-](F)(F)[N+]3=C(c5ccc[nH]5)C=CC3=C4)cc21 [Amitriptyline-b-2-NB590]			NanoBRET Fold Response (tracer at 0.1μM, listed as amitriptyline-b-2-NB590): 0.94; NanoBRET Fold Response (tracer at 1μM, listed as amitriptyline-b-2-NB590): 0.94
CN(CCC=C1c2ccccc2CCc2ccccc21)C(=O)CCOCCOCCOCCOCCNC(=O)CCc1ccc2n1[B-](F)(F)[N+]1=C(c3ccc[nH]3)C=CC1=C2 [Amitriptyline-e-2-NB590]			NanoBRET Fold Response (tracer at 1μM): 0.96
COc1ccc2c(n1)c(CCNC(C)=O)cn2CCNC(=O)CCc1ccc2n1[B-](F)(F)[N+]1=C(c3ccc[nH]3)C=CC1=C2 [Azamelatonin-1-NB590]			NanoBRET Fold Response (0.1μM tracer): 0.99; NanoBRET Fold Response (1μM tracer): 0.99
COc1ccc2[nH]c(-c3ccc(CNC(=O)CCOCCOCCOCCOCCNC(=O)CCc4ccc5n4[B-](F)(F)[N+]4=C(c6ccc[nH]6)C=CC4=C5)cc3)c(CCNC(C)=O)c2n1 [AzomelatoninICO9-2-NB590]			NanoBRET Fold Response (0.1μM tracer): 0.96; NanoBRET Fold Response (1μM tracer): 1.02
O=C(CCOCCOCCOCCOCCNC(=O)CCc1ccc2n1[B-](F)(F)[N+]1=C(c3ccc[nH]3)C=CC1=C2)NCCCN1CCN(C2=Nc3cc(Cl)ccc3Nc3ccccc32)CC1 [Clozapine-a-2-NB590]			NanoBRET Fold Response (HTR7, 0.1μM tracer): 1.22; NanoBRET Fold Response (HTR7, 1μM tracer): 1.08
O=C(CCOCCOCCOCCOCCNC(=O)CCc1ccc2n1[B-](F)(F)[N+]1=C(c3ccc[nH]3)C=CC1=C2)NCCCN1CCN(C2=Nc3ccccc3Oc3ccc(Cl)cc32)CC1 [Loxapine-a-2-NB590]	1.07	1.30	
COc1ccccc1N1CCN(CCCCN2C(=O)c3ccc(CNC(=O)CCOCCOCCOCCOCCNC(=O)CCc4ccc5n4[B-](F)(F)[N+]4=C(c6ccc[nH]6)C=CC4=C5)cc3C2=O)CC1 [NAN-190-2-NB590]		1.10	
COc1ccccc1N1CCN(CCCCN2C(=O)c3ccc(CNC(=O)CCOCCNC(=O)c4ccc(CNC(=O)CCc5ccc6n5[B-](F)(F)[N+]5=C(c7ccc[nH]7)C=CC5=C6)cc4)cc3C2=O)CC1 [NAN-190-3-NB590]	1.21	1.05	
O=C(CCc1ccc2n1[B-](F)(F)[N+]1=C(c3ccc[nH]3)C=CC1=C2)NCc1ccc(C(=O)NCCOCCC(=O)N[C@@H]2CC[C@@]3(O)[C@H]4Cc5ccc(O)c6c5[C@@]3(CCN4CC3CC3)[C@H]2O6)cc1 [Naltrexone-3-NB590]	0.97	0.97	
Cc1cc2c(s1)Nc1ccccc1N=C2N1CCN(CCCNC(=O)CCOCCOCCOCCOCCNC(=O)CCc2ccc3n2[B-](F)(F)[N+]2=C(c4ccc[nH]4)C=CC2=C3)CC1 [Olanzapine-a-2-NB590]	0.99	1.16	
O=C(CCc1ccc2n1[B-](F)(F)[N+]1=C(c3ccc[nH]3)C=CC1=C2)NCc1ccc(C(=O)NCCOCCOCCNCC(O)COc2cccc3ccccc23)cc1 (centres unmarked) [Propranolol-3-NB590]			NanoBRET Fold Response (HTR7, 0.1μM): 1.03; NanoBRET Fold Response (HTR7, 1μM): 1.02
O=C(CCc1ccc2n1[B-](F)(F)[N+]1=C(c3ccc[nH]3)C=CC1=C2)NCCOCCOCCNC(=O)OCCOCCN1CCN(C2=Nc3ccccc3Sc3ccccc32)CC1 [Quetiapine-a-2-NB590]	1.01	1.15	
Cc1nc2n(c(=O)c1CCN1CCC(c3noc4cc(F)ccc34)CC1)CCCC2OC(=O)NCCOCCOCCOCCOCCNC(=O)CCc1ccc2n1[B-](F)(F)[N+]1=C(c3ccc[nH]3)C=CC1=C2 (centres unmarked) [Risperidone-2-NB590]	1.06	1.19	
CC(C)N(CC[C@H](c1ccccc1)c1cc(CCNC(=O)CCOCCOCCOCCOCCNC(=O)CCc2ccc3n2[B-](F)(F)[N+]2=C(c4ccc[nH]4)C=CC2=C3)ccc1O)C(C)C [Tolterodine-2-NB590]	1.06	1.07	
CC(C)N(CC[C@H](c1ccccc1)c1cc(CCNC(=O)c2ccc(CNC(=O)CCc3ccc4n3[B-](F)(F)[N+]3=C(c5ccc[nH]5)C=CC3=C4)cc2)ccc1O)C(C)C [Tolterodine-BZ-NB590]	1.06	1.03	
CCCn1c(=O)c2[nH]c(-c3ccc(OCC(=O)NCCNC(=O)CCOCCNC(=O)c4ccc(CNC(=O)CCc5ccc6n5[B-](F)(F)[N+]5=C(c7ccc[nH]7)C=CC5=C6)cc4)cc3)nc2n(CCC)c1=O [XAC-3-NB590]	0.99	0.96	
